# Laboratory results: ChEMBL document CHEMBL2021798, “Discovery of new quinoline ether inhibitors with high affinity and selectivity for PDGFR tyrosine kinases” (Bioorg Med Chem Lett, 2012)
# Assays:
# Rattus norvegicus [1] = experiment: Volume of distribution at steady state in rat at 20 mg/kg, po; assay type: ADME, organism-based; set-up: dose 20 mg/kg, route oral; settings: in vivo
# [2] = Terminal half life in rat at 20 mg/kg, iv; assay type: ADME, organism-based; set-up: dose 20 mg/kg, route intravenous; settings: in vivo, read-out: beta t1/2 (converted)
# [3] = Terminal half life in dog at 20 mg/kg, iv; assay type: ADME, organism-based, Canis lupus familiaris; set-up: dose 20 mg/kg, route intravenous; settings: in vivo, read-out: beta t1/2 (converted)
# [4] = Clearance in dog at 20 mg/kg, po; assay type: ADME, organism-based, Canis lupus familiaris; set-up: dose 20 mg/kg, route oral; settings: in vivo
# Canis familiaris [5] = experiment: Volume of distribution at steady state in dog at 20 mg/kg, po; assay type: ADME, organism-based, Canis lupus familiaris; set-up: dose 20 mg/kg, route oral; settings: in vivo
# [6] = Dissociation constant, pKa of the compound; assay type: physicochemical
# Canis familiaris [7] = experiment: Volume of distribution at steady state in dog at 3 mg/kg, po; assay type: ADME, organism-based, Canis lupus familiaris; set-up: dose 3 mg/kg, route oral; settings: in vivo
# [8] = Lipophilicity, log D of the compound; assay type: physicochemical; settings: octanol/water
# [9] = Clearance in rat at 3 mg/kg, po; assay type: ADME, organism-based; set-up: dose 3 mg/kg, route oral; settings: in vivo
# [10] = Terminal half life in dog at 3 mg/kg, iv; assay type: ADME, organism-based, Canis lupus familiaris; set-up: dose 3 mg/kg, route intravenous; settings: in vivo, read-out: beta t1/2 (converted)
# Rattus norvegicus [11] = experiment: Volume of distribution at steady state in rat at 3 mg/kg, po; assay type: ADME, organism-based; set-up: dose 3 mg/kg, route oral; settings: in vivo
# [12] = Oral bioavailability in dog at 3 mg/kg; assay type: ADME, organism-based, Canis lupus familiaris; settings: in vivo
# [13] = Oral bioavailability in rat at 3 mg/kg; assay type: ADME, organism-based; settings: in vivo
# [14] = Clearance in dog at 3 mg/kg, po; assay type: ADME, organism-based, Canis lupus familiaris; set-up: dose 3 mg/kg, route oral; settings: in vivo
# [15] = Terminal half life in rat at 3 mg/kg, iv; assay type: ADME, organism-based; set-up: dose 3 mg/kg, route intravenous; settings: in vivo, read-out: beta t1/2 (converted)
# [16] = Clearance in rat at 20 mg/kg, po; assay type: ADME, organism-based; set-up: dose 20 mg/kg, route oral; settings: in vivo
# [17] = Oral bioavailability in rat at 20 mg/kg; assay type: ADME, organism-based; settings: in vivo
# [18] = Oral bioavailability in dog at 20 mg/kg; assay type: ADME, organism-based, Canis lupus familiaris; settings: in vivo
Vdss (Rattus norvegicus [1]) [L/kg],half-life [2] [h],half-life [3] [h],CL/F [4] [mL/min/kg],Vdss (Canis familiaris [5]) [L/kg],pKa [6],Vdss (Canis familiaris [7]) [L/kg],logD [8],CL/F [9] [mL/min/kg],half-life [10] [h],Vdss (Rattus norvegicus [11]) [L/kg],bioavailability [12] [%],bioavailability [13] [%],CL/F [14] [mL/min/kg],half-life [15] [h],CL/F [16] [mL/min/kg],bioavailability [17] [%],bioavailability [18] [%],SMILES
0.7,3.7,8.6,2.4,1.4,–,–,–,–,–,–,–,–,–,–,–,–,–,COc1ccc2c(Oc3ccc(CC(=O)Nc4cn(C)nc4C)c(OC)c3)ccnc2c1
–,–,–,–,–,6,2,3.3,9,3.4,0.7,100,43,11.5,1.6,–,–,–,CCOc1cc2nccc(Oc3cnc(CC(=O)Nc4n[nH]c(CC)c4C)c(OC)c3)c2cc1OC
0.7,3.7,10.6,2.5,1.8,6.3,–,3.5,–,–,–,–,–,–,–,5.7,78,59,COc1ccc2c(Oc3ccc(CC(=O)Nc4cn(C)nc4C)c(OC)c3)ccnc2c1.O=S(=O)(O)O
